SMILES strings stand for the structures.

T1 sequence (P28223 whole entry): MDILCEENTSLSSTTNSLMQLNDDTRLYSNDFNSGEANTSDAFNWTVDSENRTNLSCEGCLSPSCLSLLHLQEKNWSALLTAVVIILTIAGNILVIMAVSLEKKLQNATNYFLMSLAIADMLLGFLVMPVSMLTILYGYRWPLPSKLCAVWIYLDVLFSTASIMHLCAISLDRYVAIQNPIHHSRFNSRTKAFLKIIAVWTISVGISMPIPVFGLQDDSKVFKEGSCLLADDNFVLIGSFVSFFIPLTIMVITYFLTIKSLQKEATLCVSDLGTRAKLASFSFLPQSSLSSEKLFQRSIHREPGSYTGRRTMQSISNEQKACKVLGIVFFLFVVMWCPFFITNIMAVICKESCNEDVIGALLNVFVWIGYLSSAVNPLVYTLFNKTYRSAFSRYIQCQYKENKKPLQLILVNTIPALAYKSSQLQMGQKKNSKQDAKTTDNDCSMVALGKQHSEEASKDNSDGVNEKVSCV
5-hydroxytryptamine receptor 6 (Homo sapiens), sequence (P50406 whole entry): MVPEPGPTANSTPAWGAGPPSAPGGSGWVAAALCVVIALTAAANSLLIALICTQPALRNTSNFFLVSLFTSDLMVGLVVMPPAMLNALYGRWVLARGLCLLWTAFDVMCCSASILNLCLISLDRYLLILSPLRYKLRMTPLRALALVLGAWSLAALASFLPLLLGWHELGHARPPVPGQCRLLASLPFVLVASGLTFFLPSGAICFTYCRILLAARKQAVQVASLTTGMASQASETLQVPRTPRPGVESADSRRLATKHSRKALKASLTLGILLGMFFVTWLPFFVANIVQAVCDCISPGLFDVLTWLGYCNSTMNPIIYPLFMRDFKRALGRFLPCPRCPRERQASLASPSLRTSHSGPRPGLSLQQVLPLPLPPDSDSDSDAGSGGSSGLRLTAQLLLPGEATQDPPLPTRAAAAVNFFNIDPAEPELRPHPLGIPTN

The target in one test is 5-hydroxytryptamine receptor 5A (Homo sapiens) (UniProt P47898). The test can be described thus: Displacement of [3H]LSD from human 5-HT5A receptor expressed in Flp-In-CHO cell membranes incubated for 90 mins under dark condition by microbeta scintillation counting method relative to control. More on the design: concentration or dose not given beside the values.
5-hydroxytryptamine receptor 5A (Homo sapiens), sequence (P47898 whole entry): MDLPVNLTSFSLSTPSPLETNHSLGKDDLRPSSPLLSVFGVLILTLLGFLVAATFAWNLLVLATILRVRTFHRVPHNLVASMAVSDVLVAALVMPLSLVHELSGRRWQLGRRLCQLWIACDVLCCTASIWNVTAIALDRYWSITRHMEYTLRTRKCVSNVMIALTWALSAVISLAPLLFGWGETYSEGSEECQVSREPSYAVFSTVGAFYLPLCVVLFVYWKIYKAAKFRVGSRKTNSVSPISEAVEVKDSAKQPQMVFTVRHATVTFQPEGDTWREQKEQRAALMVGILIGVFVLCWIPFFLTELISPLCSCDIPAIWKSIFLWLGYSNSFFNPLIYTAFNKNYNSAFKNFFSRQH
Details: not given
A general note: Loss of bound radioactivity is the signal in a displacement assay; it reports binding, not function.
Turning to `CC(=O)NCCCNC(=O)[C@@]12C[C@@H]1[C@@H](n1cnc3c(NC(C4CC4)C4CC4)nc(Cl)nc31)[C@H](O)[C@@H]2O`, the inhibition (as a rule, the relative decrease from the control value, in per cent) is below 50%.
In turn, `Clc1cccc(CNc2nc(Cl)nc3[nH]cnc23)c1` had an inhibition below 50%.

A further test addresses T1, 5-hydroxytryptamine receptor 2A (Homo sapiens, UniProt P28223). The test can be described thus: Displacement of [3H]ketanserin from human 5-HT2A receptor expressed in HEK-T cell membranes incubated for 90 mins under dark condition by microbeta scintillation counting method.
Details: not given
For the molecule `CC(=O)NCCCNC(=O)[C@@]12C[C@@H]1[C@@H](n1cnc3c(NC(C4CC4)C4CC4)nc(Cl)nc31)[C@H](O)[C@@H]2O`, the Ki (usually the equilibrium dissociation constant of an inhibitor or competing ligand from its target) was above 10000 nM.
As for `Clc1cccc(CNc2nc(Cl)nc3[nH]cnc23)c1`, the Ki was above 10000 nM.

Another test deals with T2, 5-hydroxytryptamine receptor 2B (Homo sapiens, UniProt P41595).
T2 sequence (P41595 whole entry): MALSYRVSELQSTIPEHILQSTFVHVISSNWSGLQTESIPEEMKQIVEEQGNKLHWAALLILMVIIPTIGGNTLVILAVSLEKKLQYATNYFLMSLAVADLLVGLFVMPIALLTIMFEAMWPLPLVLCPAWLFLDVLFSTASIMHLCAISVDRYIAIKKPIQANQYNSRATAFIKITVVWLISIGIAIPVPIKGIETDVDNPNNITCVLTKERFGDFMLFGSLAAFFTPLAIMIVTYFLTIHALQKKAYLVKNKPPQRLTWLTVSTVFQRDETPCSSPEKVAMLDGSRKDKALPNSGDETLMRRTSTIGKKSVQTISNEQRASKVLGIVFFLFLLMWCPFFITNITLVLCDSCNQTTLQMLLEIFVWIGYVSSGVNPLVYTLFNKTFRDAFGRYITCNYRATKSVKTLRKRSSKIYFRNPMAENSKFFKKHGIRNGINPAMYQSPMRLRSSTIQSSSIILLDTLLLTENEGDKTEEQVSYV
Experiment: not given
As to conditions: HEK293, at 10 µM.
The molecule `CC(=O)NCCCNC(=O)[C@@]12C[C@@H]1[C@@H](n1cnc3c(NC(C4CC4)C4CC4)nc(Cl)nc31)[C@H](O)[C@@H]2O` came in with an inhibition above 50%.
`Clc1cccc(CNc2nc(Cl)nc3[nH]cnc23)c1` displayed an inhibition above 50%.

A further test deals with 5-hydroxytryptamine receptor 7 (Homo sapiens) (UniProt P34969). The test can be described thus: Displacement of [3H]LSD from human 5-HT7A receptor expressed in HEK cell membranes at 10 uM incubated for 90 mins under dark condition by microbeta scintillation counting method relative to control. As to conditions: HEK293.
5-hydroxytryptamine receptor 7 (Homo sapiens), sequence (P34969 whole entry): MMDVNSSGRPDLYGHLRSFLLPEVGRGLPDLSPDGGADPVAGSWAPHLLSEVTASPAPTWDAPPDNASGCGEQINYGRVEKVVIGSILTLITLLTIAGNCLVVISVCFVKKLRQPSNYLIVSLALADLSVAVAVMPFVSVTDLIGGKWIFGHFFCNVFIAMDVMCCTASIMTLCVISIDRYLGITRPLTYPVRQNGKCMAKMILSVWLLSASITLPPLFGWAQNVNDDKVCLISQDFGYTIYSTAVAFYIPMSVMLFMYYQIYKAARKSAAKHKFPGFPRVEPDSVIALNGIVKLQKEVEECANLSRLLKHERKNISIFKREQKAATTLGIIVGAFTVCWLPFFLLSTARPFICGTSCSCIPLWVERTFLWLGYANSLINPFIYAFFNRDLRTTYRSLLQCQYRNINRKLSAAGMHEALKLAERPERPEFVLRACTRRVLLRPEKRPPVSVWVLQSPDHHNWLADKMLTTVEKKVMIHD
`CC(=O)NCCCNC(=O)[C@@]12C[C@@H]1[C@@H](n1cnc3c(NC(C4CC4)C4CC4)nc(Cl)nc31)[C@H](O)[C@@H]2O` had an inhibition below 50%.
As to `Clc1cccc(CNc2nc(Cl)nc3[nH]cnc23)c1`, the inhibition was below 50%.

A further test deals with T2, 5-hydroxytryptamine receptor 2B. The test can be described thus: biochemical. It is filed as cell-based, HEK293.
Details: not given
As to `CC(=O)NCCCNC(=O)[C@@]12C[C@@H]1[C@@H](n1cnc3c(NC(C4CC4)C4CC4)nc(Cl)nc31)[C@H](O)[C@@H]2O`, the Ki was 534 nM.
In turn, `Clc1cccc(CNc2nc(Cl)nc3[nH]cnc23)c1` displayed a Ki of 2160 nM.

Another test concerns the target T3, 5-hydroxytryptamine receptor 2C (Homo sapiens, UniProt P28335).
T3 sequence (P28335 whole entry): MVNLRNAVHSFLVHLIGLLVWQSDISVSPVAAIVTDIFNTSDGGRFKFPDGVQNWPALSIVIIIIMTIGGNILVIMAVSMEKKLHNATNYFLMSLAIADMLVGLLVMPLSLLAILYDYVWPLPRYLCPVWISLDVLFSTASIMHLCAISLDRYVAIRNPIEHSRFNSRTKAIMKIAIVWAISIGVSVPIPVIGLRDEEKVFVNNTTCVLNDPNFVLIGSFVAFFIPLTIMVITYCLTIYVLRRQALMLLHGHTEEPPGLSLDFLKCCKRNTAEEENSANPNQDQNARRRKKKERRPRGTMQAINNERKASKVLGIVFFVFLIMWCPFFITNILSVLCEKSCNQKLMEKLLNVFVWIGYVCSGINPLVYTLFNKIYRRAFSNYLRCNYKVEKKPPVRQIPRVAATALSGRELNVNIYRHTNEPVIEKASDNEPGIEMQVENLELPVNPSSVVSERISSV
The test can be described thus: Displacement of [3H]mesulergine from human 5-HT2CR expressed in Flp-In HEK cell membranes incubated for 90 mins under dark condition by microbeta scintillation counting method. More on the design: species or system HEK293.
Details: not given
The molecule `CC(=O)NCCCNC(=O)[C@@]12C[C@@H]1[C@@H](n1cnc3c(NC(C4CC4)C4CC4)nc(Cl)nc31)[C@H](O)[C@@H]2O` showed a Ki of 2310 nM.

Another test addresses T1, 5-hydroxytryptamine receptor 2A. The test can be described thus: Displacement of [3H]ketanserin from human 5-HT2A receptor expressed in HEK-T cell membranes at 10 uM incubated for 90 mins under dark condition by microbeta scintillation counting method relative to control.
Details: not given
As to `CC(=O)NCCCNC(=O)[C@@]12C[C@@H]1[C@@H](n1cnc3c(NC(C4CC4)C4CC4)nc(Cl)nc31)[C@H](O)[C@@H]2O`, the inhibition is below 10%.
Molecule `Clc1cccc(CNc2nc(Cl)nc3[nH]cnc23)c1` gave an inhibition of 26%.

The next test concerns the target T4, 5-hydroxytryptamine receptor 3A (Homo sapiens) (UniProt P46098).
T4 sequence (whole entry): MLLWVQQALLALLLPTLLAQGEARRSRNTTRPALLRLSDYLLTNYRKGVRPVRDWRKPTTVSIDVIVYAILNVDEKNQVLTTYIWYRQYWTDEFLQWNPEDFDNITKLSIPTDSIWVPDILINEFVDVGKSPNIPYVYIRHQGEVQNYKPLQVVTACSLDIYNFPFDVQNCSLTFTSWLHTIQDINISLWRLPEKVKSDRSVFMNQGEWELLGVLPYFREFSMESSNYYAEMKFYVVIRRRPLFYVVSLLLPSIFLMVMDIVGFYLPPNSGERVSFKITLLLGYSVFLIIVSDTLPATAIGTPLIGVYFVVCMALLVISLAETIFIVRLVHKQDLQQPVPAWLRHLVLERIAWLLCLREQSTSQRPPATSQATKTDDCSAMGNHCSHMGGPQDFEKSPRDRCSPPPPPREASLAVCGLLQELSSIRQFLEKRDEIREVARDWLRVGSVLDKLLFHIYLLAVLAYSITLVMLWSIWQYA
The test can be described thus: Displacement of [3H]GR65630 from human 5-HT3 receptor expressed in HEK-T cell membranes at 10 uM incubated for 90 mins under dark condition by microbeta scintillation counting method relative to control.
Details: not given
Consider `CC(=O)NCCCNC(=O)[C@@]12C[C@@H]1[C@@H](n1cnc3c(NC(C4CC4)C4CC4)nc(Cl)nc31)[C@H](O)[C@@H]2O`, for which the inhibition was below 50%.
In turn, `Clc1cccc(CNc2nc(Cl)nc3[nH]cnc23)c1` had an inhibition below 50%.

The target in a further test is 5-hydroxytryptamine receptor 4 (Homo sapiens) (UniProt Q13639). The test can be described thus: Displacement of [3H]GR113808 from human 5-HT4 receptor at 10 uM incubated for 90 mins under dark condition by microbeta scintillation counting method relative to control.
5-hydroxytryptamine receptor 4 (Homo sapiens), sequence (Q13639 whole entry): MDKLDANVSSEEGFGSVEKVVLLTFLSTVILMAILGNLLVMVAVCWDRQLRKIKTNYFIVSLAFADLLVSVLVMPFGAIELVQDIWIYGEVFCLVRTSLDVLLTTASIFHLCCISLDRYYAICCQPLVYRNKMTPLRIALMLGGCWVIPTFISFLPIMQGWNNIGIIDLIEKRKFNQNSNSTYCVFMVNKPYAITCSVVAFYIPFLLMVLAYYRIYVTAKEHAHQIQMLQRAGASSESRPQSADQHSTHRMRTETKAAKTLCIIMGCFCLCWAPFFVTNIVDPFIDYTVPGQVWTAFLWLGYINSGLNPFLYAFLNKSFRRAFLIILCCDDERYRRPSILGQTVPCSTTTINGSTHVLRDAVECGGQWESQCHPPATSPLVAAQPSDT
Details: not given
On to `CC(=O)NCCCNC(=O)[C@@]12C[C@@H]1[C@@H](n1cnc3c(NC(C4CC4)C4CC4)nc(Cl)nc31)[C@H](O)[C@@H]2O`, for which the inhibition was below 50%.
For the molecule `Clc1cccc(CNc2nc(Cl)nc3[nH]cnc23)c1`, the inhibition is below 50%.

The target of another test is T5, 5-hydroxytryptamine receptor 2C (Homo sapiens) (UniProt P28335).
T5 sequence (whole entry): T3 sequence (P28335 whole entry)
The test can be described thus: Displacement of [3H]mesulergine from human 5-HT2CR expressed in Flp-In HEK cell membranes at 10 uM incubated for 90 mins under dark condition by microbeta scintillation counting method relative to control. As to conditions: HEK293.
Regarding `CC(=O)NCCCNC(=O)[C@@]12C[C@@H]1[C@@H](n1cnc3c(NC(C4CC4)C4CC4)nc(Cl)nc31)[C@H](O)[C@@H]2O`, the inhibition is above 50%.
In turn, `Clc1cccc(CNc2nc(Cl)nc3[nH]cnc23)c1` gave an inhibition above 50%.

For the next test, the target named is 5-hydroxytryptamine receptor 1E (Homo sapiens) (UniProt P28566). The test can be described thus: Displacement of [3H]5-HT from human 5-HT1E receptor expressed in HEK cell membranes at 10 uM incubated for 90 mins under dark condition by microbeta scintillation counting method relative to control. Conditions: HEK293.
5-hydroxytryptamine receptor 1E (Homo sapiens), sequence (P28566 whole entry): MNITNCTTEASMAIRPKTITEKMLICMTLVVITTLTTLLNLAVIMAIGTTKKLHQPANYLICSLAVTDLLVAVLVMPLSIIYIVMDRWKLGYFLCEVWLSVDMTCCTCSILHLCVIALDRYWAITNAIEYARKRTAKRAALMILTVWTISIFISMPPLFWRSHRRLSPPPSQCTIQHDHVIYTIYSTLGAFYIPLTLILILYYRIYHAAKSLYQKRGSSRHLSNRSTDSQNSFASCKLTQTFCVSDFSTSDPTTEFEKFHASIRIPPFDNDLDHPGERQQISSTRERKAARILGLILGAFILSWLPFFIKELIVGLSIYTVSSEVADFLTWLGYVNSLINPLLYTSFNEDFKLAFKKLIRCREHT
`CC(=O)NCCCNC(=O)[C@@]12C[C@@H]1[C@@H](n1cnc3c(NC(C4CC4)C4CC4)nc(Cl)nc31)[C@H](O)[C@@H]2O` returned an inhibition below 50%.
In the case of `Clc1cccc(CNc2nc(Cl)nc3[nH]cnc23)c1`, the inhibition is below 50%.

The target in another test is 5-hydroxytryptamine receptor 1D (Homo sapiens) (UniProt P28221). The test can be described thus: Displacement of [3H]5-CT from human 5-HT1D receptor expressed in HEK-T cell membranes at 10 uM incubated for 90 mins under dark condition by microbeta scintillation counting method relative to control.
5-hydroxytryptamine receptor 1D (Homo sapiens), sequence (P28221 whole entry): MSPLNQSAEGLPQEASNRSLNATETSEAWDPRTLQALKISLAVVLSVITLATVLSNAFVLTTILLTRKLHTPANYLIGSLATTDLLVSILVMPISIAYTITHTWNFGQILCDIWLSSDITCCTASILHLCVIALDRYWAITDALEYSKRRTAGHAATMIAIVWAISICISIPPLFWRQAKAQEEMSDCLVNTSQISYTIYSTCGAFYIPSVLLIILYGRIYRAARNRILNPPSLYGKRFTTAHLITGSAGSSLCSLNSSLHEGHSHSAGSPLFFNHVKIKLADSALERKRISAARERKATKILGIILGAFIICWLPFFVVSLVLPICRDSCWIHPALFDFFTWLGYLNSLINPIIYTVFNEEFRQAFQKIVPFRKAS
Details: not given
`CC(=O)NCCCNC(=O)[C@@]12C[C@@H]1[C@@H](n1cnc3c(NC(C4CC4)C4CC4)nc(Cl)nc31)[C@H](O)[C@@H]2O` showed an inhibition below 50%.
With `Clc1cccc(CNc2nc(Cl)nc3[nH]cnc23)c1`, the inhibition is below 50%.

In a further test the target is T6, 5-hydroxytryptamine receptor 1A (Homo sapiens) (UniProt P08908).
T6 sequence (whole entry): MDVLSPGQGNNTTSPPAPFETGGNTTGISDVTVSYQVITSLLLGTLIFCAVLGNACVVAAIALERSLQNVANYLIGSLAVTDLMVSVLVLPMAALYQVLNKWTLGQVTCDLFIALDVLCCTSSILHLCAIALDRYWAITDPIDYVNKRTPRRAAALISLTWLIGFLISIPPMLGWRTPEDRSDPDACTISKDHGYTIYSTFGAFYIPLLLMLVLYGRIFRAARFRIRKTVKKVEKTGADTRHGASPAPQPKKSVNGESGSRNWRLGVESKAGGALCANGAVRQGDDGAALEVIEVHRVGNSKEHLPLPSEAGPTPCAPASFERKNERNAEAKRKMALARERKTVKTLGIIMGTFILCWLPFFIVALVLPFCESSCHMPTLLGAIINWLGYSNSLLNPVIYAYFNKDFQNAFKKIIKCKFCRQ
The test can be described thus: Displacement of [3H]WAY100635 from human 5-HT1AR expressed in CHO cell membranes at 10 uM incubated for 90 mins under dark condition by microbeta scintillation counting method relative to control.
Details: not given
In the case of `CC(=O)NCCCNC(=O)[C@@]12C[C@@H]1[C@@H](n1cnc3c(NC(C4CC4)C4CC4)nc(Cl)nc31)[C@H](O)[C@@H]2O`, the inhibition is below 50%.
The same measure, in the same setting: to `Clc1cccc(CNc2nc(Cl)nc3[nH]cnc23)c1` belongs below 50%.

The target of the next test is Adenosine receptor A2a (Homo sapiens, UniProt P29274). The test can be described thus: Displacement of [3 H]2-[p-(2-carboxyethyl)phenyl-ethylamino]-5'-N-ethylcarboxamidoadenosine from recombinant human adenosine receptor A2A expressed in HEK293 cell membranes at 10 uM after 60 mins by liquid scintillation counting method relative to control.
Adenosine receptor A2a, sequence (P29274 whole entry): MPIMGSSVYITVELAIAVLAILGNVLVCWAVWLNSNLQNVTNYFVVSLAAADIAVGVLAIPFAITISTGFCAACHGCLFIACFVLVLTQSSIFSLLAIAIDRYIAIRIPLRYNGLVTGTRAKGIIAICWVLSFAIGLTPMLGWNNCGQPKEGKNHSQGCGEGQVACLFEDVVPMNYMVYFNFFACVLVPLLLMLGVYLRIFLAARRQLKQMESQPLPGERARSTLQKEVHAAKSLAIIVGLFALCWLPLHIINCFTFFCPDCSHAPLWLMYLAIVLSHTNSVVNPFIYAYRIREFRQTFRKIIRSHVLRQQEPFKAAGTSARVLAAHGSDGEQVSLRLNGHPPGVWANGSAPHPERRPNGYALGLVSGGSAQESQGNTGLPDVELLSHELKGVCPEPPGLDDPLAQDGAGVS
Details: not given
Turning to `CC(=O)NCCCNC(=O)[C@@]12C[C@@H]1[C@@H](n1cnc3c(NC(C4CC4)C4CC4)nc(Cl)nc31)[C@H](O)[C@@H]2O`, the inhibition was determined as 26%.
On the same count and under the same terms, to `Clc1cccc(CNc2nc(Cl)nc3[nH]cnc23)c1` belongs 37%.

The next test deals with 5-hydroxytryptamine receptor 1B (Homo sapiens) (UniProt P28222). The test can be described thus: Displacement of [3H]5-CT from human 5-HT1BR expressed in HEK cell membranes at 10 uM incubated for 90 mins under dark condition by microbeta scintillation counting method relative to control. Conditions: HEK293.
5-hydroxytryptamine receptor 1B (Homo sapiens), sequence (P28222 whole entry): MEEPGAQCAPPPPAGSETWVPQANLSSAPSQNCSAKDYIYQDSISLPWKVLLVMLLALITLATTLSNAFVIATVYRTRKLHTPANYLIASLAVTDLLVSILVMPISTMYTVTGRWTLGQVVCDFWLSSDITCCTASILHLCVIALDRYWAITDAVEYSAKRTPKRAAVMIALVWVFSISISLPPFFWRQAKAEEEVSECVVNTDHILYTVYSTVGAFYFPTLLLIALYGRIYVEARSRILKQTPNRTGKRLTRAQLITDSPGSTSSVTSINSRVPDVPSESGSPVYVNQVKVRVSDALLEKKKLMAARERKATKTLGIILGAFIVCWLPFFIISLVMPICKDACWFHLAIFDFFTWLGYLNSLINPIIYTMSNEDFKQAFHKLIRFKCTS
Turning to `CC(=O)NCCCNC(=O)[C@@]12C[C@@H]1[C@@H](n1cnc3c(NC(C4CC4)C4CC4)nc(Cl)nc31)[C@H](O)[C@@H]2O`, the inhibition was below 50%.
As to `Clc1cccc(CNc2nc(Cl)nc3[nH]cnc23)c1`, the inhibition is below 50%.

Another test addresses 5-hydroxytryptamine receptor 6 (Homo sapiens) (UniProt P50406). The test can be described thus: Displacement of [3H]LSD from human 5-HT6 receptor expressed in HEK cell membranes at 10 uM incubated for 90 mins under dark condition by microbeta scintillation counting method relative to control. As to conditions: HEK293.
`CC(=O)NCCCNC(=O)[C@@]12C[C@@H]1[C@@H](n1cnc3c(NC(C4CC4)C4CC4)nc(Cl)nc31)[C@H](O)[C@@H]2O` registered an inhibition below 50%.
On the same count and under the same terms, to `Clc1cccc(CNc2nc(Cl)nc3[nH]cnc23)c1` belongs below 50%.

A further test concerns the target T7, Adenosine receptor A1 (Homo sapiens) (UniProt P30542).
T7 sequence (whole entry): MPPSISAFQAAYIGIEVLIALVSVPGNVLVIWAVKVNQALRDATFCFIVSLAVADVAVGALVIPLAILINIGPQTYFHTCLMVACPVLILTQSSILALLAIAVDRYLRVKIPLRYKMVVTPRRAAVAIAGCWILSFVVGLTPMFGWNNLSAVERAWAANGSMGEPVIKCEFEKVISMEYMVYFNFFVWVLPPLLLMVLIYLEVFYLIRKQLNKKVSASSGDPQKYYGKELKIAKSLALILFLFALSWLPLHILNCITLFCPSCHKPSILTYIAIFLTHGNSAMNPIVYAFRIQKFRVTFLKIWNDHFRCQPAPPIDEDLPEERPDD
The test can be described thus: Displacement of [3H]N6-phenylisopropyladenosine from recombinant human A1AR expressed in CHO cell membranes at 10 uM after 60 mins by liquid scintillation counting method relative to control.
Details: not given
Turning to `CC(=O)NCCCNC(=O)[C@@]12C[C@@H]1[C@@H](n1cnc3c(NC(C4CC4)C4CC4)nc(Cl)nc31)[C@H](O)[C@@H]2O`, the inhibition worked out at 46%.
On to `Clc1cccc(CNc2nc(Cl)nc3[nH]cnc23)c1`, for which the inhibition stood at 45%.

The record behind these values is ChEMBL document CHEMBL3862033 (J Med Chem, 2016).
